Assay results published in ChEMBL document CHEMBL3425423, “Hydroxy tricyclic 1,5-naphthyridinone oxabicyclooctane-linked novel bacterial topoisomerase inhibitors as broad-spectrum antibacterial agents-SAR of RHS moiety (Part-3)” (Bioorg Med Chem Lett, 2015).
≈ marks a conversion by molar mass, not a printed value.

Assays:
Type in all cases: functional
[1] = test system: Enterococcus faecalis; assay: Antibacterial activity against Enterococcus faecalis ATCC 29212; conditions: Enterococcus faecalis, ATCC 29212; read-out: MIC
[2] = test system: Enterococcus faecium; assay: Antibacterial activity against VanA-type vancomycin-resistant Enterococcus faecium A2373; conditions: Enterococcus faecium, A2373; read-out: MIC
[3] = test system: Escherichia coli; assay: Antibacterial activity against Escherichia coli ATCC 25922; conditions: Escherichia coli, ATCC 25922; read-out: MIC
[4] = test system: Pseudomonas aeruginosa; assay: Antibacterial activity against Pseudomonas aeruginosa PAO1; conditions: Pseudomonas aeruginosa, PAO1; read-out: MIC
[5] = test system: Moraxella catarrhalis; assay: Antibacterial activity against Moraxella catarrhalis ATCC 25238; conditions: Moraxella catarrhalis, ATCC 25238; read-out: MIC
[6] = test system: Streptococcus pneumoniae; assay: Antibacterial activity against Streptococcus pneumoniae IID554; conditions: Streptococcus pneumoniae, IID554; read-out: MIC
[7] = test system: Staphylococcus aureus; assay: Antibacterial activity against Staphylococcus aureus Smith; conditions: Staphylococcus aureus, Smith; read-out: MIC
[8] = test system: Haemophilus influenzae; assay: Antibacterial activity against Haemophilus influenzae ATCC 49247; conditions: Haemophilus influenzae, ATCC 49247; read-out: MIC
[9] = test system: Acinetobacter baumannii; assay: Antibacterial activity against Acinetobacter baumannii IID876; conditions: Acinetobacter baumannii, IID876; read-out: MIC
[10] = test system: Staphylococcus aureus; assay: Ratio of MIC for quinolone-resistant Staphylococcus aureus MS5935 to MIC for quinolone-sensitive Staphylococcus aureus

Row | Structure (SMILES) | MIC [1] [µg/mL] | MIC [2] [µg/mL] | MIC [3] [µg/mL] | MIC [4] [µg/mL] | MIC [5] [µg/mL] | MIC [6] [µg/mL] | MIC [7] [µg/mL] | MIC [8] [µg/mL] | MIC [9] [µg/mL] | Ratio [10]
1 | CN1CCN(C)c2nc(CNC34CCC(C[C@]5(O)Cn6c(=O)ccc7ncc(F)c5c76)(CC3)OC4)ccc21 | 32 (≈ 61.5 µM) | 32 (≈ 61.5 µM) | 32 (≈ 61.5 µM) | 32 (≈ 61.5 µM) | 32 (≈ 61.5 µM) | 32 (≈ 61.5 µM) | 8 (≈ 15.4 µM) | 32 (≈ 61.5 µM) | 32 (≈ 61.5 µM) | –
2 | O=c1ccc2ncc(F)c3c2n1C[C@@]3(O)CC12CCC(NC/C=C/c3c(F)cccc3F)(CC1)CO2 | 4 (≈ 8.04 µM) | 8 (≈ 16.1 µM) | 16 (≈ 32.2 µM) | 32 (≈ 64.3 µM) | – | 0.25 (≈ 0.502 µM) | 0.063 (≈ 0.127 µM) | – | 2 (≈ 4.02 µM) | <4
3 | O=c1ccc2ncc(F)c3c2n1C[C@@]3(O)CC12CCC(NC/C(F)=C\c3cc(F)ccc3F)(CC1)CO2 | 4 (≈ 7.76 µM) | 16 (≈ 31 µM) | 16 (≈ 31 µM) | 16 (≈ 31 µM) | – | 1 (≈ 1.94 µM) | 0.25 (≈ 0.485 µM) | – | 16 (≈ 31 µM) | <4
4 | O=C1COc2ccc(CNC34CCC(C[C@]5(O)Cn6c(=O)ccc7ncc(F)c5c76)(CC3)OC4)nc2N1 | 4 (≈ 7.88 µM) | 8 (≈ 15.8 µM) | 4 (≈ 7.88 µM) | 16 (≈ 31.5 µM) | 0.25 (≈ 0.493 µM) | 0.25 (≈ 0.493 µM) | 0.25 (≈ 0.493 µM) | 1 (≈ 1.97 µM) | 2 (≈ 3.94 µM) | –
5 | O=C1COc2cc(O)c(CNC34CCC(C[C@]5(O)Cn6c(=O)ccc7ncc(F)c5c76)(CC3)OC4)nc2N1 | 8 (≈ 15.3 µM) | 16 (≈ 30.6 µM) | 16 (≈ 30.6 µM) | 16 (≈ 30.6 µM) | 1 (≈ 1.91 µM) | 2 (≈ 3.82 µM) | 2 (≈ 3.82 µM) | 4 (≈ 7.64 µM) | 32 (≈ 61.1 µM) | <4
6 | O=c1ccc2ncc(F)c3c2n1C[C@@]3(O)CC12CCC(NCc3cc4c(cc3Cl)OCCO4)(CC1)CO2 | 4 (≈ 7.58 µM) | 8 (≈ 15.2 µM) | 32 (≈ 60.6 µM) | 32 (≈ 60.6 µM) | 0.5 (≈ 0.947 µM) | 0.5 (≈ 0.947 µM) | 0.25 (≈ 0.474 µM) | 32 (≈ 60.6 µM) | 8 (≈ 15.2 µM) | –
7 | O=c1[nH]c2c(F)ccc(F)c2cc1CNC12CCC(C[C@]3(O)Cn4c(=O)ccc5ncc(F)c3c54)(CC1)OC2 | 32 (≈ 59.4 µM) | 64 (≈ 119 µM) | 64 (≈ 119 µM) | 64 (≈ 119 µM) | – | 2 (≈ 3.71 µM) | 2 (≈ 3.71 µM) | – | 64 (≈ 119 µM) | <4
